Measured values published in patent US8293231B2, “Methods and compositions for treating ischemia” (Blue Blood Biotech Corp., priority 2005, dated 2012).

Assays:
[1] = system: Matrigel plugs in FVB mice; assay: Murine angiogenesis assay (Matrigel plug); assay type: in vivo
[2] = system: MMP-1, MMP-2, MMP-3, and MMP-9 in HUVEC conditioned medium; assay: Gelatin and casein zymographies; assay type: cell-based, human; conditions: gelatin zymography
Experimental: (§1) HUVECs were seeded at 80% confluence on 100-mm dishes in M199 medium. After 24 h, cells were rinsed with serum-free M199 twice and incubated in serum-free M199 with various concentrations of TMD23, VEGF (10 ng/mL), or PMA (70 ng/mL) for 12 h. The conditioned medium containing […] secreted proteins was analyzed by gelatin- and casein-based zymographies. The digested area appeared clear on a blue background, indicating the location of matrix metalloproteinase (MMP) activity. To further verify MMP caseinolytic activity, the casein-containing gel was incubated with incubation buffer containing 10 mM EDTA, an inhibitor of MMPs, to observe disappearance of the clear band. Plasminogen activator inhibitor (PAI) activity was measured by titrating samples with increasing amounts of tissue-type plasminogen activator (t-PA) (Boehringer Ingelheim) into a fixed volume of endothelial-cell-conditioned media.
as §1, with “zymographies. Lee O H, et al., Identification of angiogenic properties of insulin-like growth factor II in in vitro angiogenesis models. Brit J. Cancer. 2000; 82:385-391.” for “zymographies.”, “media. Shi G Y., et al., Plasmin and the regulation of tissue-type plasminogen activator biosynthesis in human endothelial cells. […]” for “media.”

TMD23: Recombinant human thrombomodulin fragment, amino acids Ala242-Ser515 of SEQ ID NO: 2: six EGF-like structures (D2) plus Ser/Thr-rich domain D3
Appearance of Matrigel plugs, without heparin [1]: pale | Expression of MMP-2 and MMP-9 ([2]; 12 h): no significant effect | Expression of MMP-1/3 ([2]; MMP-3 confirmed by caseinolytic zymography): stimulated expression
